Legend:
Per1 gene = test: expression of clock genes in liver of mouse given corticosterone (quantitative real time RT-PCR); assay type: in vivo
Method: This example is intended to investigate the amount of expression of Per1 in a mouse which was given corticosterone.
A mouse was given a prescribed amount of corticosterone, and one hour later, it had its liver extracted. The collected liver was homogenized for quantitative real time RT-PCR in the same way as in Example 2, and the amount of expression of clock genes was determined.
The abscissa represents the dosage (mg/kg) of corticosterone per 1 kg of the mouse's weight. “PBS” denotes the control which was given a phosphate buffer solution in place of corticosterone. “fold induction” on the ordinate represents the amount of expression of Per1 gene (in terms of a relative value, with the value for PBS being 1).
The abscissa represents each clock gene. “fold induction” on the ordinate represents the amount of expression of each clock gene in terms of a relative value, with the value for PBS being 1.

[1] = target: glucocorticoid receptor (GR) joining to GRE resembling sequence of Per1 gene (Mus musculus, UniProt P06537); details: NIH3T3 cells, 1 hr after treatment with dexamethazone, anti-GR antibody
Method: First, NIH3T3 cells were treated with dexamethazone to induce the expression of mPer1 gene. The cells were given formaldehyde to fix the binding of protein and chromatin DNA. The chromatin DNA was fragmented by sonication and the resulting fragments underwent immunoprecipitation with anti-GR antibody. The resulting precipitates (as a composite of anti-GR antibody, GR, and chromatin DNA joining to GR) were recovered. The recovered precipitates were heated to remove the DNA-protein crosslinking. The desired sequence was amplified by PCR and the PCR product was identified by electrophoresis.
In other words, the primer was so designed as to specifically amplify the region near the two GRE resembling sequences.
In FIG. 5B, “IP: α-GR” indicates the desired sequence detected by semi-quantitative RT-PCR after immunoprecipitation by means of anti-GR antibody. “IP: αa-normal rabbit IgG” indicates the sequence (control) detected from immunoprecipitation by means of rabbit IgG. In addition, “input” indicates the desired sequence (control) detected by semi-quantitative RT-PCR without immunoprecipitation. “ChIP primer” in the lowermost row indicates the sequence of the primer used for semi-quantitative RT-PCR or the desired sequence which has been amplified. […]

[2] = test system: promoter region of Per1 gene; test: luciferase assay of Per1 promoter constructs in NIH3T3 cells with dexamethazone; assay type: cell-based; details: dexamethazone 0.1 μM, 36 hours after transfection
Method: The second step was luciferase assay to investigate what part of the promoter region of Per1 is associated with stress response.
Luciferase is an enzyme protein that catalyzes bioluminescence. It can be used to estimate the level at which the expression of a specific gene is induced in the following manner. First, a recombinant gene is prepared in which the promoter region of a specific gene is joined to a gene that codes luciferase. Second, the recombinant gene is incorporated into cultured cells. Third, the gene is allowed to express so that the luciferase is allowed to express. Fourth, the intensity of bioluminescence due to luciferase is determined to obtain the level at which luciferase expresses.
An experiment was carried out based on the foregoing principle. It involves preparation of several kinds of DNA differing in the length of the promoter region of Per1 and determination of the expression level of Per1 in the presence of dexamethazone. […] Incidentally, dexamethazone is synthetic glucocorticoid. It is known that the amount of glucocorticoid in blood increases when a living organism experiences stress.
The procedure of the experiment is outlined below. • (1) The first step is to prepare DNAs (P1F, P1K, and P1S), the first one having the entire length of the promoter region of Per1 gene and the second and third ones having the partial length of the promoter region of Per1 gene, with the upstream side cut off. […] The subcultured cells are collected and dissolved 36 hours after transfection. • (4) The fourth step is to prepare a solution from the dissolved cells and measurement of the luminescence intensity by means of Dual Luciferase Assay System (from Promega). […]
FIG. 4C is a graph showing the results of luciferase assay. The abscissa (Relative Luciferase Activity) represents the intensity of luminescence in terms of relative value (%) compared with the intensity of luminescence assigned as 100 of the cultured cells incorporated with the entire length of the promoter region of Per1 gene.
“P1F” denotes the intensity of luminescence from cultured cells incorporated with the entire length of the promoter region of Per1 gene. “P1K” denotes the intensity of luminescence from cultured cells incorporated with the partial length of 3806 bases upstream from the transcription starting region of Per1 gene. “P1S” denotes the intensity of luminescence from cultured cells incorporated with the partial length of 2369 bases upstream from the transcription starting region of Per1 gene. “Vector” denotes the intensity of luminescence from cultured cells (control) incorporated with a blank vector. […] “Dex” and “EtOH” respectively denote the intensity of luminescence from a sample containing dexamethazone and a sample (control) containing ethanol. […]

Sequence of glucocorticoid receptor (GR) joining to GRE resembling sequence of Per1 gene (P06537 whole entry): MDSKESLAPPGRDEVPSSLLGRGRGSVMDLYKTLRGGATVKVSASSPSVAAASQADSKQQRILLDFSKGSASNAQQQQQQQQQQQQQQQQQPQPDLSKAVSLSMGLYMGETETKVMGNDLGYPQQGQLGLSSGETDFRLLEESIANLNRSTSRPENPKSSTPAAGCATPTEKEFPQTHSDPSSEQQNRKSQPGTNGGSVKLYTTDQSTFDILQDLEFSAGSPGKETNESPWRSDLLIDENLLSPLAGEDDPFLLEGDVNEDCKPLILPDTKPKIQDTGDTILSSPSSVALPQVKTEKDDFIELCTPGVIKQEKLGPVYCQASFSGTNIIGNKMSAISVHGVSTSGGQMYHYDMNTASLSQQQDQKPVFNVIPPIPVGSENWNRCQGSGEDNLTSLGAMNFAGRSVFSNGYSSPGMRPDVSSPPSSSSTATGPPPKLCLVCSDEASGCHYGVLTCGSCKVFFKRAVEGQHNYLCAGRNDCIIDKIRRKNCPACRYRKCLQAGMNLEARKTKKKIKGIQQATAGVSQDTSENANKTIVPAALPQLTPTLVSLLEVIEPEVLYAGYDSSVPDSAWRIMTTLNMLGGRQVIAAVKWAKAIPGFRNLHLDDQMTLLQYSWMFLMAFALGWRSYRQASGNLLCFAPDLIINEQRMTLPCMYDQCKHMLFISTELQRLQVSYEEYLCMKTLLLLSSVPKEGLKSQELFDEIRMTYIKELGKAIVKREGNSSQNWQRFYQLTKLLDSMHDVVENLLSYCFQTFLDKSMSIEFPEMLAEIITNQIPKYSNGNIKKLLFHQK

detection of dGRE and pGRE sequences by semi-quantitative RT-PCR after immunoprecipitation ([1]; FIG. 5B) | amount of dGRE and pGRE DNA amplified (%input) by quantitative real time RT-PCR after immunoprecipitation ([1]; FIG. 5C) | SMILES | amount of expression of each clock gene (fold induction, PBS being 1) (Per1 gene; one hour after corticosterone 10 mg/kg, FIG. 7B) | amount of expression of Per1 gene (fold induction, PBS being 1) versus dosage (Per1 gene; one hour after corticosterone, dosage in mg/kg, FIG. 7A) | intensity of luminescence, P1FpM ([2]; P1F with GRE resembling sequence mutated in its downstream, FIG. 4D) | intensity of luminescence, P1FdM ([2]; P1F with GRE resembling sequence mutated in its upstream, FIG. 4D) | Relative Luciferase Activity (intensity of luminescence), P1K ([2]; P1K promoter (3806 bases upstream, two GRE resembling sequences), vs EtOH, FIG. 4C) | Relative Luciferase Activity (intensity of luminescence), P1S ([2]; P1S promoter (2369 bases upstream, one GRE resembling sequence), vs EtOH, FIG. 4C)
– | – | C[C@]12C[C@H](O)[C@H]3[C@@H](CCC4=CC(=O)CC[C@@]43C)[C@@H]1CC[C@@H]2C(=O)CO [corticosterone] | increases the amount of expression of only Per1 gene among clock genes | increases as the dosage of corticosterone increases | – | – | – | –
the desired band was detected | greatly amplifies | C[C@@H]1C[C@H]2[C@@H]3CCC4=CC(=O)C=C[C@]4(C)[C@@]3(F)[C@@H](O)C[C@]2(C)[C@@]1(O)C(=O)CO [dexamethazone] | – | – | high intensity of luminescence | a little lower intensity of luminescence | high intensity of luminance | certain intensity of luminance
